The structures appear in SMILES notation.

Experiment [1] has as its target Atypical kinase COQ8A, mitochondrial (Homo sapiens, UniProt Q8NI60). To be noted: at 10 µM.
The target in experiment [2] is T1, TGF-beta receptor type-1 (Homo sapiens) (UniProt P36897).
T1 sequence (whole entry): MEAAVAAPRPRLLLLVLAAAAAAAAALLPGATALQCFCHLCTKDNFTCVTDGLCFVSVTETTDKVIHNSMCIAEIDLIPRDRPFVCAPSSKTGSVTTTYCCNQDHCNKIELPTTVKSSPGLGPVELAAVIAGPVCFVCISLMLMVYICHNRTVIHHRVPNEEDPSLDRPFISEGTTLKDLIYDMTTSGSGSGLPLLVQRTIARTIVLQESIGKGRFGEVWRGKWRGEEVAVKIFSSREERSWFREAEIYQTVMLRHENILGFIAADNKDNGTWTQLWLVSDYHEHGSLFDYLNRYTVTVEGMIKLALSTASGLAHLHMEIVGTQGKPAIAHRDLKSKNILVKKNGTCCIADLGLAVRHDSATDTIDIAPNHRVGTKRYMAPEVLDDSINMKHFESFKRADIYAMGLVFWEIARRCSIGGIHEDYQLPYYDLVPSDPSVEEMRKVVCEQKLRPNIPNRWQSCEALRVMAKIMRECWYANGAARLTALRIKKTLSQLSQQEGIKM
Put plainly: Selectivity interaction (KinomeScan (DiscoverX)) EUB0000607a TGFBR1. The following applies: at 10 µM.

Experiment [3] concerns Phosphatidylinositol 4,5-bisphosphate 3-kinase catalytic subunit alpha isoform (Homo sapiens), P42336 [Q546K]. The following applies: at 10 µM.
Sequence of Phosphatidylinositol 4,5-bisphosphate 3-kinase catalytic subunit alpha isoform (Homo sapiens), P42336 [Q546K] (P42336 whole entry Q546K, canonical isoform): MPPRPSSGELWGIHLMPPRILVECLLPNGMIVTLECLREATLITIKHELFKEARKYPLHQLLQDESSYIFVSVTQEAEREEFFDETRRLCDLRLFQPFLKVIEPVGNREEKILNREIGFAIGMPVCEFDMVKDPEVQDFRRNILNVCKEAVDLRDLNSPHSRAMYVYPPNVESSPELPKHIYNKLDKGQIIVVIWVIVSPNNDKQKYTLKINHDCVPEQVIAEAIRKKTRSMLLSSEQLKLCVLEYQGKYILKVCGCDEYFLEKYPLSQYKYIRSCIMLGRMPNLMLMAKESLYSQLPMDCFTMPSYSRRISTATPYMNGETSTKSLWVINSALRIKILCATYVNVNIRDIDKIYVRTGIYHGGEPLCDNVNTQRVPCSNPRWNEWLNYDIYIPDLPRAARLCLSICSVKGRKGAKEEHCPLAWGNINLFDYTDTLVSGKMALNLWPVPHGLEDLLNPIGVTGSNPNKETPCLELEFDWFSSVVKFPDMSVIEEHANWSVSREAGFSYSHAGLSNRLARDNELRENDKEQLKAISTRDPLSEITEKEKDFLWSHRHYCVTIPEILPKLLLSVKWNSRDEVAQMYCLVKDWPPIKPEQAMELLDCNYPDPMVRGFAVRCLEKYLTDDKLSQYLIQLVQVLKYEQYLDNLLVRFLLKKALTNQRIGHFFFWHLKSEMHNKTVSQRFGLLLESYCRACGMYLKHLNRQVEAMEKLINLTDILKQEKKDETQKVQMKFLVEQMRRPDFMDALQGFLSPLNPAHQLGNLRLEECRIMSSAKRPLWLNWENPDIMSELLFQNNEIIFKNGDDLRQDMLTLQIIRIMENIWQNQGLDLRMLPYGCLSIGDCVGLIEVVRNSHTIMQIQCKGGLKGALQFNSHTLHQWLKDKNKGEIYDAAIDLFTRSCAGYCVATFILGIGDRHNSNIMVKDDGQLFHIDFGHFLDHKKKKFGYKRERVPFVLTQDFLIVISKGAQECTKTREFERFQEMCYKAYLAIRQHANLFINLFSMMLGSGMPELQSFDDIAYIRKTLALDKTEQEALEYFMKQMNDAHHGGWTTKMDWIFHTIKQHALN
Experiment [4] has as its target Tyrosine-protein kinase JAK1 (Homo sapiens, UniProt P23458). The experiment can be described thus: Selectivity interaction (Kinase panel (Invitrogen)) EUB0000639a JAK1. To be noted: at 200 nM.
Experiment [5] deals with T2, Dual specificity mitogen-activated protein kinase kinase 3 (Homo sapiens) (UniProt P46734).
T2 sequence (whole entry): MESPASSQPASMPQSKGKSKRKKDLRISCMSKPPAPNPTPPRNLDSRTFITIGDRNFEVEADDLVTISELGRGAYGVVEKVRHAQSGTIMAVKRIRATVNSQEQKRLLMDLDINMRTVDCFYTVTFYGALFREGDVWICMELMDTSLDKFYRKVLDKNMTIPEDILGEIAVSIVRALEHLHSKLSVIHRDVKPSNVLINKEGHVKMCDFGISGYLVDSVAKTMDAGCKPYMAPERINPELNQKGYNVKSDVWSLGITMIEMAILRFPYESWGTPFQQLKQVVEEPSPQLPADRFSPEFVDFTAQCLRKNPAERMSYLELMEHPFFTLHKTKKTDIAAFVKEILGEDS
The experiment can be described thus: Selectivity interaction (ActivX KiNativ screen (kinase selectivity in THP-1 cell lysates)) EUB0000639a MAP2K3. The format is subcellular. The following applies: lysate, at 5 µM.

The target in experiment [6] is T3, Serine/threonine-protein kinase NLK (Homo sapiens) (UniProt Q9UBE8).
T3 sequence (whole entry): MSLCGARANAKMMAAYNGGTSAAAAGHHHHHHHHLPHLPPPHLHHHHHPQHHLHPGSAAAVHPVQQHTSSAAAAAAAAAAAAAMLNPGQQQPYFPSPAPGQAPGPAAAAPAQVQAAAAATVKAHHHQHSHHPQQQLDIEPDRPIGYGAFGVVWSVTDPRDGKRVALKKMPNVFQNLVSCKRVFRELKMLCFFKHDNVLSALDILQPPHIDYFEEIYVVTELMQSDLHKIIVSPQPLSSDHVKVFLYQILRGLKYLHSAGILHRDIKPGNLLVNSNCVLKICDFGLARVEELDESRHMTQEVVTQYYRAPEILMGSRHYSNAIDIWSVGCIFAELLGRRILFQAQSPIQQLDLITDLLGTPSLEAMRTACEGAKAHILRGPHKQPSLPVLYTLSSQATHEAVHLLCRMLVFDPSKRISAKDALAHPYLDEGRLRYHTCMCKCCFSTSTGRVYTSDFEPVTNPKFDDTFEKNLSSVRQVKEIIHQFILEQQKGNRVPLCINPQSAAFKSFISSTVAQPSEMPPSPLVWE
Put plainly: Selectivity interaction (ProQinase) EUB0000171b NLK.

Experiment [7] concerns the target Proto-oncogene tyrosine-protein kinase Src (Homo sapiens, UniProt P12931). The experiment can be described thus: Selectivity interaction (KinomeScan (DiscoverX)) EUB0000618a SRC. To be noted: at 10 µM.
The target in experiment [8] is T4, Serine/threonine-protein kinase ICK (Homo sapiens) (UniProt Q9UPZ9).
T4 sequence (whole entry): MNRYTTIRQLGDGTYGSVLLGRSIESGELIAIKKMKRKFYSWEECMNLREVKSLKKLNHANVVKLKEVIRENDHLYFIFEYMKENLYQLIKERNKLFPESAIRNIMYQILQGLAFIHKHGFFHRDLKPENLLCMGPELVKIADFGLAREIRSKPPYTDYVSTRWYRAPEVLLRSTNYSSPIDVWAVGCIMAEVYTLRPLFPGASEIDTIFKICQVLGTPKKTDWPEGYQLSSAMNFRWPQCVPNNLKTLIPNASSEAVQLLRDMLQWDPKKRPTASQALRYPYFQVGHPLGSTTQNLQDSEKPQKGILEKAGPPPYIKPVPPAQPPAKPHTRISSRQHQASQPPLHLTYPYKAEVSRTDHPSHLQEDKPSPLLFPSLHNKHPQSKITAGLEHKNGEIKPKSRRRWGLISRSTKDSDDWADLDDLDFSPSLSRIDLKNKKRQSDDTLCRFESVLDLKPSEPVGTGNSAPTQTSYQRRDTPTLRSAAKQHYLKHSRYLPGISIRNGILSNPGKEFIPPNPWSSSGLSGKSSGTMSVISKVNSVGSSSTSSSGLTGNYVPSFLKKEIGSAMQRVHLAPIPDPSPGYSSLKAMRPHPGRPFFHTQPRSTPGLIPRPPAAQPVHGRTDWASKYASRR
The experiment can be described thus: Selectivity interaction (KinomeScan (DiscoverX)) EUB0000618a ICK. To be noted: at 10 µM.

In experiment [9] the target is Ribosomal protein S6 kinase alpha-6 (Homo sapiens, UniProt Q9UK32). Put plainly: Selectivity interaction (KinomeScan (DiscoverX)) EUB0001079a RPS6KA6. To be noted: at 1 µM.
Sequence of Ribosomal protein S6 kinase alpha-6 (Q9UK32 whole entry): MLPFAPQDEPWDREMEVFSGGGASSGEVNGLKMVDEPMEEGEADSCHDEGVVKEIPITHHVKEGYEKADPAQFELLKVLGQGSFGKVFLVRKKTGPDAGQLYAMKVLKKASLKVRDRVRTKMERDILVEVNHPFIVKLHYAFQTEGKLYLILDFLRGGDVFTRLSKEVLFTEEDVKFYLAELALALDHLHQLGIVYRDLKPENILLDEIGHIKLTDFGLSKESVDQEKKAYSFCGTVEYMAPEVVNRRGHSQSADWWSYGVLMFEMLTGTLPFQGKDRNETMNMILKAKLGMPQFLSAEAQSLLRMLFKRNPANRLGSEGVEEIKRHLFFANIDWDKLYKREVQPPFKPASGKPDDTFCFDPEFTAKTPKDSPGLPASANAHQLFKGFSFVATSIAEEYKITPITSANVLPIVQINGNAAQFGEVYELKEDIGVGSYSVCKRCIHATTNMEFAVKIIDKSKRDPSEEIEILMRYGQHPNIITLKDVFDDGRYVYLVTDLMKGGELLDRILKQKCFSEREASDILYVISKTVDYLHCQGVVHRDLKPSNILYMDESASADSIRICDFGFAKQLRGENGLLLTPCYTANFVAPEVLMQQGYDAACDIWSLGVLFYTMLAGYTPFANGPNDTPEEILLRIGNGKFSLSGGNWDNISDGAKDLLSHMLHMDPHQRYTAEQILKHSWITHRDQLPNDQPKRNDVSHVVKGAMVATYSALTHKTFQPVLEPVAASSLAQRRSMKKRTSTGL
Another experiment addresses SRSF protein kinase 1 (Homo sapiens, UniProt Q96SB4). Put plainly: Selectivity interaction (Kinase panel (KiNativ target engagement assay in Jurkat cells)) EUB0001635a SRPK1. The following applies: Selectivity number of off-targets 0.0, Selectivity number of targets 233.0, Source Knowledge https://www.sciencedirect.com/science/article/pii/S2451945619300674?via%3Dihub, at 1 µM. The experiment is classed as cell-based.

Sequence of Atypical kinase COQ8A, mitochondrial (Q8NI60 163-647 limits assumed): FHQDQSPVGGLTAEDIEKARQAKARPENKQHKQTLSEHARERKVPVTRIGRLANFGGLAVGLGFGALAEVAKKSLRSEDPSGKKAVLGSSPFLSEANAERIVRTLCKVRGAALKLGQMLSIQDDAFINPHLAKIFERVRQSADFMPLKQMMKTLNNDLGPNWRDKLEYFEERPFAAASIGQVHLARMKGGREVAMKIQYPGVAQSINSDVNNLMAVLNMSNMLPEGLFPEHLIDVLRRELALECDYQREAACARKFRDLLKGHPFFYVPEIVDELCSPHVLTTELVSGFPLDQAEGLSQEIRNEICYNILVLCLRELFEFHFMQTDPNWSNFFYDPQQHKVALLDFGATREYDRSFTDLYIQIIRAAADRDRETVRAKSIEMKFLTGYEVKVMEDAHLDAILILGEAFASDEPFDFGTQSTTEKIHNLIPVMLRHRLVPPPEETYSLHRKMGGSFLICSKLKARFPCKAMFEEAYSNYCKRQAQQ
Sequence of Proto-oncogene tyrosine-protein kinase Src (P12931 2-536 limits assumed): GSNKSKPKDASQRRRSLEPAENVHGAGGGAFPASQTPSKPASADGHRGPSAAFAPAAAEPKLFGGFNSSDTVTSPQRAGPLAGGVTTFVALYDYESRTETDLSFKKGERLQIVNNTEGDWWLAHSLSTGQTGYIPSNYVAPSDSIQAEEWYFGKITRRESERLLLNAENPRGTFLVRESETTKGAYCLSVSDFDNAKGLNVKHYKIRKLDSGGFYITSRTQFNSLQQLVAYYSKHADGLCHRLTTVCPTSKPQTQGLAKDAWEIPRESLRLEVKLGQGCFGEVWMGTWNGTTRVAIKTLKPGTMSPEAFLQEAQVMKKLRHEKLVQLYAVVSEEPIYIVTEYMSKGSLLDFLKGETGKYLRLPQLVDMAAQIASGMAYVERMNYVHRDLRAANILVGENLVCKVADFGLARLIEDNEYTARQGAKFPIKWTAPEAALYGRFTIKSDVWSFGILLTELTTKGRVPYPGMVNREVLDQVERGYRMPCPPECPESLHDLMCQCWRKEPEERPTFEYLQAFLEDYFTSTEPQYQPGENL
Sequence of Tyrosine-protein kinase JAK1 (P23458 whole entry): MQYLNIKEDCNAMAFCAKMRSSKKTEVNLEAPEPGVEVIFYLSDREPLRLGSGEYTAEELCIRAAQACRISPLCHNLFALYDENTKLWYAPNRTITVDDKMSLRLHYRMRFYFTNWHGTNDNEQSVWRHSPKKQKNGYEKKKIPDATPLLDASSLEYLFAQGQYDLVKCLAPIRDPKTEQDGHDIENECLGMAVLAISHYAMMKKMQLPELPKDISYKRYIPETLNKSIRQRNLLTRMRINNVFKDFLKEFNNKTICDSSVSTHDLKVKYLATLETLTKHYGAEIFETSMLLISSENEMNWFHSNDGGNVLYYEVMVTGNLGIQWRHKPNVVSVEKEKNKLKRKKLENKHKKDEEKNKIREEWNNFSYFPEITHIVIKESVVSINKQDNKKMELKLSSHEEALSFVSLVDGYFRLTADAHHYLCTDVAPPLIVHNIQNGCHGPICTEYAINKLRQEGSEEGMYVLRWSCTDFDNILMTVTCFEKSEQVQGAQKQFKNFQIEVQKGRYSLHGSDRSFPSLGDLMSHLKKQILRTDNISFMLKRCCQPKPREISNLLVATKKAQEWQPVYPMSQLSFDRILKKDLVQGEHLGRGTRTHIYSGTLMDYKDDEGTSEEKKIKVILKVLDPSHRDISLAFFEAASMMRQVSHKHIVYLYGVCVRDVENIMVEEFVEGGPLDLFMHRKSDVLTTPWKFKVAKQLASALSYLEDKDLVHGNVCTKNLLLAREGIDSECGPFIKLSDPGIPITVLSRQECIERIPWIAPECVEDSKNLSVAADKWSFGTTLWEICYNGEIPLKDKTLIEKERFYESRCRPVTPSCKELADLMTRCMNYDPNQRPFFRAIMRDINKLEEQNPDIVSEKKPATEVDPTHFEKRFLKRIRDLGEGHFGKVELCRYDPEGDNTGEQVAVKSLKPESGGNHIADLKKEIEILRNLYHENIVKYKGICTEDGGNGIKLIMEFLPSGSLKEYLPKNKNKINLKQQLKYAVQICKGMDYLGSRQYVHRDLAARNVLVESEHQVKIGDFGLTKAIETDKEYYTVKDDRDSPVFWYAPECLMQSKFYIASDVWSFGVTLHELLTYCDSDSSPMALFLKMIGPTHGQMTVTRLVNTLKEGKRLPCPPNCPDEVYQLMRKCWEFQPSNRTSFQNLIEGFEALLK
Sequence of SRSF protein kinase 1 (Q96SB4 whole entry): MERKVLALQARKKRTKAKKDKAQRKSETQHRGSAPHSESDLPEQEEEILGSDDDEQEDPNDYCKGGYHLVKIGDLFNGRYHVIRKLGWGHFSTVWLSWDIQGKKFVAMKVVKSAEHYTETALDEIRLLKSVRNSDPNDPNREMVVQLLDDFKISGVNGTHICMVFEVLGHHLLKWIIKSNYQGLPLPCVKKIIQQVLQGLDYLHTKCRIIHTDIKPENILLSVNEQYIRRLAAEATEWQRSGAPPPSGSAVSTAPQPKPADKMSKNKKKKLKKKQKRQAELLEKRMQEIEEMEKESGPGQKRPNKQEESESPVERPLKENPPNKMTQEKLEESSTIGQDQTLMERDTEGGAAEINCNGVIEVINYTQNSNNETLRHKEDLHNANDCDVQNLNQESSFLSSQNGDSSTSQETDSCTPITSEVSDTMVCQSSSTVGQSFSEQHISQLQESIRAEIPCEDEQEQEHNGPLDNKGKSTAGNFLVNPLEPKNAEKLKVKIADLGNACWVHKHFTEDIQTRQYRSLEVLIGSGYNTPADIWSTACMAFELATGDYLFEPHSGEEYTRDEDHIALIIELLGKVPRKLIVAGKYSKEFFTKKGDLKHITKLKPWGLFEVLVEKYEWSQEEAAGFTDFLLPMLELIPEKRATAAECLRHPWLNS

`CCN(CC)CCCCNc1ncc2cc(-c3cc(OC)cc(OC)c3)c(NC(=O)NC(C)(C)C)nc2n1` yielded a % of control in experiment [1] of 100%.

For the molecule `CNC(=O)Nc1ccc(-c2nc(N3CC4CCC(C3)O4)c3cnn(C4CCC5(CC4)OCCO5)c3n2)cc1`, the values for the % of control in [2] and in experiment [3] were 100% and 11%, respectively. With `CC[C@@H]1[C@H](F)C(=O)N[C@@H]1COc1nccc2cc(C(N)=O)c(OC)cc12` [ZIMLOVISERTIB], the % of inhibition in [4] is -0.407%; in experiment [5], -185%.

In the case of `C=CC(=O)Nc1cccc(C(=O)Nc2ccc(Nc3cc(-c4[nH]c(SC)nc4C)ccn3)cc2)c1`, the % of control in experiment [6] (at 1 µM) is 86%; in experiment [6] (at 5 µM), 37%. Turning to `O[C@H]1CC[C@H](Nc2ncc3nc(Nc4c(F)cc(F)cc4F)n([C@H]4CCOC4)c3n2)CC1`, the % of control in experiment [7] was found to be 72%; in experiment [8], 100%. For `Nc1cnc(N2CCc3cc(S(=O)(=O)Nc4c(F)cc(Cl)cc4F)cc(N4CCCC4=O)c32)nc1` [TP-020n], the % of control in [9] was 86%.

The molecule `C=CC(=O)Nc1ccc(C(=O)Nc2[nH]nc3c2CN(C(=O)N[C@H](CN(C)C)c2ccccc2)C3(C)C)cc1` registered a % of engagement on SRSF protein kinase 1 of 6%.

The values are drawn from ChEMBL document CHEMBL5465560, “Selectivity Literature for EUbOPEN Chemogenomic Library” (2024).
